Test results from patent US6809214B2, “Shortened synthesis of 3,3-diarylpropylamine derivatives” (Schwartz Pharma AG, priority 2000, dated 2004).
Values after ≈ are worked out from the molar mass of the structure shown. Structures can show the parent of a compound that is named as a salt.

How the values were obtained:
[1] = Solubilities at ambient temperature; assay type: physicochemical

SMILES: O=C1C[C@H](c2ccccc2)c2cc(C(=O)O)ccc2O1 (as salt: salt) [Example 3, (R)-4-Phenyl-2-chromanone-6-carboxylic acid]
- melting point: 197.5 °C

SMILES: O=C1CC(c2ccccc2)c2cc(C(=O)O)ccc2O1 (racemic) [Example 1, (R,S)-4-Phenyl-2-chromanone-6-carboxylic acid]
- melting point: 246 °C

SMILES: COC(=O)c1ccc2c(c1)C(c1ccccc1)CC(=O)O2 (racemic) [Example 5a]
- melting point: 97 to 99 °C

SMILES: CC(C)OC(=O)c1ccc2c(c1)C(c1ccccc1)CC(=O)O2 (racemic) [Example 5c]
- melting point: 85.9 °C

SMILES: O=C1C[C@H](c2ccccc2)c2cc(C(=O)O)ccc2O1 [Example 3, (R)-4-Phenyl-2-chromanone-6-carboxylic acid]
- melting point: 224.9 °C

SMILES: COC(=O)c1ccc(O)c([C@H](CCN(C(C)C)C(C)C)c2ccccc2)c1 [Example 8b, (R)-(−)-3-(3-Diisopropylamino-1-phenylpropyl)-4-hydroxybenzoic acid methyl ester]
- melting point: 143.7 °C

SMILES: CC(C)N(CC[C@H](c1ccccc1)c1cc(C(=O)O)ccc1O)C(C)C [Example 9, (R)-(−)-3-(Diisopropylamino-1-phenylpropyl)-4-hydroxybenzoic acid]
- melting point: 102.3 °C

SMILES: CC(C)N(CC[C@H](c1ccccc1)c1cc(CO)ccc1O)C(C)C [Example 13, (R)-2-(3-diisopropylamino-1-phenylpropyl)-4-hydroxymethylphenol]
- solubility ([1]; in water): ~10000 µg/mL (≈ 29.3 mM)
- solubility ([1]; organic solvent or mixture, in 2-butanone): < 200 µg/mL
- solubility ([1]; organic solvent or mixture, in dichloromethane): < 200 µg/mL
- solubility ([1]; organic solvent or mixture, in ethyl acetate): < 200 µg/mL
- solubility ([1]; organic solvent or mixture, in methanol): > 50000 µg/mL
